Assay [1] has as its system MCF-7 cells. Put plainly: Cell proliferation by cell counting, MCF-7. In kind it is cell-based, human. The note with it: for Fold change of cell proliferation: 4OHT (0.5 μM), Fig.6f; for Cell proliferation (cell counting): 1 μM Entinostat for 4 days, Fig.1p. On the procedure: Cell proliferation rates were determined by automated cell counter. In brief, cells were plated at density of 0.1 million cells per well in six-well plate. Cell numbers were counted by the indicated time point as stated in the figure legends.

Assay [2] deals with MCF-7 cells. Kind of assay: Colony-formation assay, MCF-7 (wild-type and ESR1 knock-in). In kind it is cell-based, human. To be noted: for Relative colony formation: 1 μM 4OHT, 0.2 μM Fulvestrant, 2 μM VT02956, 2 μM VT02484, Fig.6g. The procedure: […] The drugs were refreshed every 2–4 days. The colonies were then fixed with 4% paraformaldehyde for 15 min and stained with 0.1% crystal violet in 20% methanol solution for quantification.

Assay [3] has as its system T47D cells. Put plainly: Colony-formation assay, T47D (wild-type and ESR1 knock-in). It counts as cell-based. The note with it: 1 μM 4OHT, 0.2 μM Fulvestrant, 2 μM VT02956, 2 μM VT02484, 14 days, Fig.6h. The procedure:
For colony formation, cells were plated into 12-well plate with a constant density at the start date of treatment in triplicate with the indicated compounds and further cultured for 10 days (MCF-7) or 14 days (T47D). The drugs were refreshed every 2–4 days. The colonies were then fixed with 4% paraformaldehyde for 15 min and stained with 0.1% crystal violet in 20% methanol solution for quantification.

For assay [4], the system named is YAP/TAZ target, ESR1 and ERα target gene mRNA in BTO-02. Put plainly: qPCR gene expression in breast tumour organoids BTO-02.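 Further: relative mRNA abundance computed by the ΔCt approach from SYBR-based real-time qPCR, with GAPDH as internal housekeeping reference for normalisation.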 In kind it is cell-based, human. To be noted: BTO-02 starved for E2 for 3 days, then 100 nM E2 for 2 hours; Fig.s6o. (Quantitative PCR measures a nucleic acid by following its amplification.)
For assay [5], the system named is VGLL3, ESR1, YAP/TAZ target and ERα target gene mRNA in MCF-7 cells. Kind of assay: qPCR gene expression in MCF-7 cells.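 Further: SYBR Green real-time PCR, mRNA abundance computed by the ΔCt approach with GAPDH transcript as the internal normalisation control.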 To be noted: 1 μM Entinostat for 24 h, Fig.1o.
For assay [6], the system named is ER+ breast tumour organoids (BTO-02). Kind of assay: 3D organoids drug response assay (CellTiter-Glo 3D). It counts as cell-based, human. To be noted: BTO-02; 12 days treatment with 0.2 µM Fulvestrant or 1 µM Tamoxifen; Fig.s6p. On the procedure:
Breast tumour organoids were dissociated into single cells using TrypLE Express and counted with automated cell counter. Subsequently, 1000 cells were mixed in 10 μl BME type 2, seeded onto 96-well plate in triplicate and overlaid with 100 μl BC organoid medium (BOM) after BME gelation. Three days after organoids sphere formation, medium was removed and replaced by 100 μl of complete medium containing VT02956 (0, 0.04, 0.2, 1, 5 μM) or vehicle (DMSO). The drug-containing medium was refreshed every 3 days for additional 3–4 times. At the end of the treatment, the effect of the drugs on the tumour organoids, in terms of the organoids cell growth, was assayed with CellTiter-Glo 3D (Promega) according to the manufacturer’s instructions and were normalised to vehicle controls (0.5% DMSO content). The IC50 values was calculated in GraphPad Prism 8.
A general note: ATP-based viability assays read luminescence as a measure of living cells.

Assay [7] concerns the target T1, TEAD-VGLL3-NCOR2 complex (Homo sapiens, UniProt Q15562).
T1 construct: expressed in transfected cells; host or cells: MCF-7
Put plainly: TEAD2 co-immunoprecipitation with NCOR2 / VGLL3. It counts as cell-based. To be noted: MCF7 transfected cells; Fig. 2n. The procedure:
For immunoprecipitations, cells were rinsed with ice-cold DPBS and then lysed in mild lysis buffer (150 mM NaCl, 50 mM Tris-Cl pH7.5, 0.5% Triton X-100) with protease inhibitors (Roche, #11873580001) and phosphatase inhibitors (Thermo Scientific, #88667) on ice for 30 min and centrifuged at 12,000 rpm for 10 min. Primary antibodies and Protein A/G magnetic beads (Pierce, #88803) were added to the supernatants and incubated with rotation for 3 h at 4 °C. Immunoprecipitants were washed four times with lysis buffer and were denatured by SDS-PAGE sample buffer and boiled for 5 min.

In assay [8] the test system is ERα, YAP/TAZ phosphorylation in MCF-7 cells. Put plainly: Immunoblot analysis, MCF-7 cells. It counts as cell-based, human. The note with it: WT or LATS1/2 dKO MCF-7; 1 µM of VT-107 for 2 days; Supplementary Fig. 4k. (In general: Immunoblotting shows a protein as a band on a membrane.)
Assay [9] concerns contact between ESR1 promoter and super enhancer locus. Kind of assay: 3C library targeted bait qPCR (3C-qPCR). In kind it is cell-based, human. To be noted: MCF-7 LATS1/2 dKO + 1 µM VT107 for 2 days; relative to Parental; Fig.s5f. On the procedure:
The 3C templates were generated by combining the protocols of 3C[40] with in-situ Hi-C[41]. Briefly, 10 million cells were collected, and the cell pellet was resuspended in DPBS with formaldehyde added at a final concentration of 1% at room temperature for 10 min. […] The nuclei were further washed once by in-situ lysis buffer and resuspended in 50 μl 0.5% SDS solution at 62 °C for exactly 10 min. The SDS was then neutralised by adding 145 μl H2O and 25 μl 10% Triton X-100 at 37 °C for 15 min. After adding 100 U DpnII (NEB, #R0543) with the presence of 1x NBEuffer 3.1, the restriction enzyme digestion was conducted in a thermomixer overnight at 37 °C. The restriction enzyme was then heat inactivated by incubating at 65 °C for 20 minutes. Then the digested chromatin was re-ligated by adding 900 μl Ligation Master Mix (1.3x NEB T4 Ligase Buffer, 1.1% X-100, 0.05% BSA and 2 U/μl T4 ligase) and incubated overnight at 16 °C with constant rotation. […] The 3C DNA was then purified with phenol-chloroform, precipitated and washed in 70% ethanol, and resuspend in Elution Buffer (1 mM Tris-HCl pH 8.0, 0.1 mM EDTA) and quantified with Nanodrop. […] Library concentration was measured with Qubit sdDNA HS Assay Kit and further qualified with Tapestation. […] After sequencing quality control with FastQC and trimming of adaptor sequence with Trim Galore, reads were processed in accordance with the Umi4C pipeline.

Where “and” joins values, the source holds several entries; their conditions need not be identical. Equal values may be shown once.

T1 sequence (Q15562 whole entry, one chain of several): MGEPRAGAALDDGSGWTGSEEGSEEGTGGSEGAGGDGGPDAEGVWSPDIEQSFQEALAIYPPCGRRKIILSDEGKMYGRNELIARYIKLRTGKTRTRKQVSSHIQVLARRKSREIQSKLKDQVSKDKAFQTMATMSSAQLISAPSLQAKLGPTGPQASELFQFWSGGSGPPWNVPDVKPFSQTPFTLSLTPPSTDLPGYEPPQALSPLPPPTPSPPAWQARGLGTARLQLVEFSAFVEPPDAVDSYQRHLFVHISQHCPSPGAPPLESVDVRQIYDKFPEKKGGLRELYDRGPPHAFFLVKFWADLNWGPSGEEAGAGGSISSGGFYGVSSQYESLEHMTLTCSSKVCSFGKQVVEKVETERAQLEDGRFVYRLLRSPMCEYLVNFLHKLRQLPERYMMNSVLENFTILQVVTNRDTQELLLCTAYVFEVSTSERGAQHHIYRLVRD

As for `CC/C(=C(\c1ccc(O)cc1)c1ccc(OCCN(C)C)cc1)c1ccccc1` [4OHT, 4-Hydroxytamoxifen, reference compound], the “Fold change of cell proliferation” value was 1.082 and 1.041 and 1.122 in assay [1] (MCF-7 ERα-Y537S knock-in + ctrl); 0.2796 and 0.349 and 0.2955 in assay [1] (MCF-7 ERα-Y537S knock-in + sgLATS1/2); 0.5306 and 0.5714 and 0.5918 in assay [1] (MCF-7 wt + ctrl); 0.2041 and 0.1918 and 0.1796 in [1] (MCF-7 wt + sgLATS1/2). Also, the Relative colony formation in assay [2] (MCF-7 ERa D538G knock-in) is 0.71 and 0.61 and 0.66; in assay [2] (MCF-7 ERa Y537S knock-in), 0.79 and 0.83 and 0.77; in assay [2] (MCF-7 WT), 0.38 and 0.41 and 0.34; in assay [3] (T47D ERa Y537S knock-in) it was 0.79 and 0.83 and 0.77; in assay [3] (T47D WT), 0.41 and 0.38 and 0.44.
As for `C[C@]12CC[C@@H]3c4ccc(O)cc4CC[C@H]3[C@@H]1CC[C@@H]2O` [E2, 17β-estradiol, reference compound], in assay [4], the “GREB1 Rel. expression (BTO-02)” value is 4.976 and 4.601 and 4.355; the “TFF1 Rel. expression (BTO-02)” value was 6.504 and 6.591 and 6.279.
With `Nc1ccccc1NC(=O)c1ccc(CNC(=O)OCc2cccnc2)cc1` [Entinostat, reference compound], the “Cell proliferation (cell counting)” value in assay [1] (VGLL3 KO MCF-7) was 10.42 and 9.55 and 11.21; in [1] (Wild-type MCF-7), 4.59 and 3.87 and 4.88. Further, the “ESR1 expression (qPCR)” value in assay [5] (VGLL3 KO MCF-7) is 0.5015 and 0.486 and 0.4463; in assay [5] (Wild-type MCF-7), 0.07832 and 0.08939 and 0.1138.
As for `C[C@]12CC[C@@H]3c4ccc(O)cc4C[C@@H](CCCCCCCCC[S+]([O-])CCCC(F)(F)C(F)(F)F)[C@H]3[C@@H]1CC[C@@H]2O` (stereo partly drawn) [Fulvestrant, reference compound], the Relative colony formation in [2] (MCF-7 ERa D538G knock-in) was 0.58 and 0.62 and 0.53; in [2] (MCF-7 ERa Y537S knock-in), 0.68 and 0.73 and 0.65; in assay [2] (MCF-7 WT), 0.31 and 0.26 and 0.32; in assay [3] (T47D ERa Y537S knock-in), 0.68 and 0.73 and 0.65; in assay [3] (T47D WT), 0.38 and 0.35 and 0.32. The “Rel. growth (BTO-02, %)” value in assay [6] is 43.197% and 36.224% and 48.81%.
`CC(=O)c1c(C)c2cnc(Nc3ccc(N4CCNCC4)cn3)nc2n(C2CCCC2)c1=O` [Palbociclib, reference compound]: the “MCF-7 growth, palbociclib combined with LATS1/2 depletion” value in assay [1] (LATS1/2 deficient MCF-7, Palbociclib 0.1 or 0.3 µM for 7 days, Supplementary Fig. 8i) is “dramatically reduced MCF-7 growth”. Moreover, the “Rel. colony (colony-formation assay)” value in [2] (MCF-7, VT02956 (2 μM), VT02484 (2 μM) or Palbociclib (0.1 μM) alone or in combinations, Fig.6d) is 0.58 and 0.54 and 0.51.
On to `CC/C(=C(\c1ccccc1)c1ccc(OCCN(C)C)cc1)c1ccccc1` [Tamoxifen], for which, in [6], the “Rel. growth (BTO-02, %)” value is 55.442% and 49.15% and 52.381%.
Take VT-107: in [7], the “TEAD2 Co-IP with VGLL3 / NCOR2” value was “disrupted the interaction of TEAD with either VGLL3 or NCOR2”. In addition, the “ERα level (immunoblot)” value in [8] was “ameliorated the ERα downregulation caused by LATS1/2 dKO”. Also, the “Rel. Contact (3C-qPCR) between ESR1 promoter and super enhancer” value in assay [9] was 0.5958 and 0.5632 and 0.5017.

Source of the values: PMC8881512 (Nature Communications, 2022).
